How the values were obtained:
Format in all cases: in vivo
[1] = system: Plutella xylostella; assay: Activity against Plutella xylostella, artificial diet in 24-well plates, L2 larvae; conditions: for percent effect (mortality or growth inhibition) at 100 ppm: Plutella xylostella, 120 h, application rate 100 ppm, 5 days after infestation, read-out: effect in at least one of the two categories (mortality or growth inhibition); for effect: application rate 4 ppm
Experimental: (§1) 24-well microtiter plates with artificial diet were treated with agueous test solutions prepared from 10,000 ppm DMSO stock solutions by pipetting. After drying, the plates were infested with L2 larvae (10 to 15 per well). The samples were assessed for mortality and growth inhibition in comparison to untreated samples 5 days after infestation.

[2] = system: Leucania separate; assay: Activity against Leucania separate, sprayed maize sprouts, L2 larvae; conditions: 96 h; application rate 100 ppm; 4 days after infestation; read-out: effect in at least one of the two categories (mortality or growth inhibition)
Experimental: (§2) This test case is used to illustrate the insecticidal activity inhibition (%) of compounds with the structure shown in formula (I) (dosage of 100 ppm).
as §1, with “Maize sprouts placed onto an agar layer in 24-well” for “24-well”, “plates” for “plates with artificial diet”, “spraying.” for “pipetting.”, “(6” for “(10”, “10” for “15”, “4” for “5”

[3] = system: Aphis craccivora Koch; assay: Activity against Aphis craccivora Koch, pea seedling roots in test solution; conditions: for mortality at 100 ppm: Aphis craccivora, 144 h, test rate 100 ppm, 6 days after placing seedlings into test solutions; for effect: application rate 4 ppm
Experimental: (§3) Roots of pea seedlings infested with an aphid population of mixed ages were placed directly into agueous test solutions prepared from […] stock solutions. The samples were assessed for mortality 6 days after placing seedlings into test solutions.

[4] = system: Nilaparvata lugens; assay: Activity against Nilaparvata lugens, sprayed leaf discs, adults; conditions: for mortality at 100 ppm: Nilaparvata lugens, foliar, 144 h, test rate 100 ppm, 6 days after incubation; for effect: application rate 45 ppm
Experimental: Cotton leaf discs were placed on agar in 24-well microtiter plates and sprayed with agueous test solutions prepared from 10,000 ppm DMSO stock solutions. After drying the leaf discs were infested with adult Nilaparvata lugens. The samples were checked for mortality 6 days after incubation.

[5] = system: Myzus persicae; assay: Activity against Myzus persicae (green peach aphid), pea seedling roots in test solution; conditions: 144 h, test rate 100 ppm, 6 days after placing seedlings into test solutions
Experimental: as §2, §3

[6] = system: Chilo suppressalis; assay: Activity against Chilo suppressalis, soaked rice seedlings, L2 larvae; conditions: application rate 5 ppm, after 96 hours, read-out: effect (mortality rates)
Experimental: Take 5-6 rice seedlings, each 3-4 cm in height, soak them thoroughly in the prepared solution, After drying, the plates were infested with L2 larvae (10 per well). Keep them in an observation room for rearing and observation. Use 0.1% warm water as a blank control. Incubate them in an observation room at 25 to 27° C. After 96 hours, assess the samples based on mortality rates

[7] = system: Laphygma exigua; assay: Activity against Laphygma exigua, artificial diet in 24-well plates, L2 larvae; conditions: application rate 4 ppm
Experimental: as §1

CCS(=O)(=O)c1cc2nc(C3CC3)n(C)c2nc1-c1nc2cc(C(F)(F)F)cnc2n1C [Compound I-1]
percent effect (mortality or growth inhibition) at 100 ppm [1]: ≥ 90%
percent effect (mortality or growth inhibition) at 100 ppm [2]: ≥ 90%
mortality at 100 ppm [3]: ≥ 90%
effect [3]: 100%
mortality at 100 ppm [4]: ≥ 90%
mortality at 100 ppm [5]: ≥ 90%

CCS(=O)(=O)c1cc2nc(C)n(C)c2nc1-c1nc2cc(C(F)(F)F)cnc2n1C [Compound I-2]
percent effect (mortality or growth inhibition) at 100 ppm [1]: ≥ 90%
percent effect (mortality or growth inhibition) at 100 ppm [2]: ≥ 90%
mortality at 100 ppm [3]: ≥ 90%
mortality at 100 ppm [4]: ≥ 90%
mortality at 100 ppm [5]: ≥ 90%

CCS(=O)(=O)c1cc2nc(C3CC3)sc2nc1-c1nc2cc(C(F)(F)F)cnc2n1C [Compound I-73]
mortality at 5 ppm [6]: 100%
percent effect (mortality or growth inhibition) at 100 ppm [1]: ≥ 90%
effect [1]: 100%
percent effect (mortality or growth inhibition) at 100 ppm [2]: ≥ 90%
effect [7]: 100%
mortality at 100 ppm [3]: ≥ 90%
effect [3]: 100%
mortality at 100 ppm [4]: ≥ 90%
effect [4]: 95%
mortality at 100 ppm [5]: ≥ 90%

CCS(=O)(=O)c1cc2nc(C(F)(F)F)sc2nc1-c1nc2cc(C(F)(F)F)cnc2n1C [Compound I-100]
effect [3]: 100%
effect [4]: 95%

CCS(=O)(=O)c1cc2sc(C3CC3)nc2nc1-c1nc2cc(C(F)(F)F)cnc2n1C [Compound I-109]
mortality at 5 ppm [6]: 100%
percent effect (mortality or growth inhibition) at 100 ppm [1]: ≥ 90%
effect [1]: 100%
percent effect (mortality or growth inhibition) at 100 ppm [2]: ≥ 90%
effect [7]: 100%
mortality at 100 ppm [3]: ≥ 90%
effect [3]: 100%
mortality at 100 ppm [4]: ≥ 90%
effect [4]: 95%
mortality at 100 ppm [5]: ≥ 90%
